Assay results from paper PMC7765930, “Antiproliferative Phenanthrenes from Juncus tenuis: Isolation and Diversity-Oriented Semisynthetic Modification” (Molecules, 2020).
Where two headings read alike, the source gives them in different places.

Assays:
[1] = test system: A2780 human ovarian cancer cell line; experiment: MTT antiproliferative assay, A2780; format: cell-based; conditions: 100–0.19 μM, read-out: IC50 (µM) ± SD A2780
Experimental: (§1) Breast cancer cell line MCF-7 (ATCC® HTB-22) and the drug-resistant subline of the human breast cancer MCF-7 (ECACC 86012803; KCR) were purchased from LGC Promochem (Teddington, UK). Both cell lines were cultured in Eagle’s Minimal Essential Medium (EMEM, containing 4.5 g/L glucose) supplemented with a non-essential amino acid mixture, a selection of vitamins, and 10% heat-inactivated fetal bovine serum. In every third passage, 0.56 µg/mL doxorubicin was added to the medium, in order to maintain the ABCB1 (P-glycoprotein) expression in KCR cells. A2780 human ovarian cancer cell line (ECACC, European Collection of Authentical Cell Culture, Sigma Cat.no. 93112519) was purchased from Merck KGaA (Darmstadt, Germany). The cisplatin-resistant human ovarian cancer cell line A2780cis (ECACC European Collection of Authentical Cell Culture, Sigma Cat.no. 93112517) was purchased from Merck KGaA (Darmstadt, Germany). The human ovarian cancer cell lines were cultured in RPMI 1640 medium supplemented with 10% heat-inactivated fetal bovine serum. […] HeLa (ATCC® CCL-2™) human cervix carcinoma cell line was purchased from LGC Promochem (Teddington, UK). The cells were cultured in Eagle’s Minimal Essential Medium (EMEM, containing 4.5 g/L glucose) supplemented with a non-essential amino acid mixture, a selection of vitamins, and 10% heat-inactivated fetal bovine serum. MRC-5 human embryonal lung fibroblast cell line (ATCC® CCL-171) was purchased from LGC Promochem, Teddington, UK. The cell line was cultured in Eagle’s Minimal Essential Medium (EMEM, containing 4.5 g/L glucose) supplemented with a non-essential amino acid mixture, a selection of vitamins, and 10% heat-inactivated fetal bovine serum. HTB-26 breast adenocarcinoma cell line was purchased from LGC Promochem, Teddington, UK. The cell line was cultured in RPMI 1640 medium supplemented with 10% heat-inactivated fetal bovine serum. T-47D (ATCC® HTB-133™) ductal carcinoma cell line was purchased from LGC Promochem, Teddington, UK. The cells were cultured in RPMI 1640 medium supplemented with 10% heat-inactivated fetal bovine serum, 2 mM L-glutamine, 1 mM Na-pyruvate, and 100 mM Hepes. All of the cells were incubated at 37 °C, in a 5% CO2 and 95% air atmosphere.
(§2) The antiproliferative effect of the compounds was determined on human breast (MCF-7, KCR, T47D, and HTB-26), cervical (HeLa), and ovarian (A2780 and A2780cis) cancer cells, and on MRC-5 (human embryonic lung fibroblast) cell lines. The adherent cells were cultured in 96-well flat-bottomed microtiter plates, using EMEM supplemented with 10% heat-inactivated fetal bovine serum or RPMI 1640 supplemented with 10% heat-inactivated fetal bovine serum, respectively. The density of the cells was adjusted to 6 × 10^3 cells in 100 μL per well, the cells were seeded for 24 h at 37 °C, with 5% CO2, and then the medium was removed from the plates, and fresh medium (100 μL per well) was added to the cells. The effects of increasing concentrations of compounds on cell proliferation were tested in 96-well flat-bottomed microtiter plates. The compounds were diluted in the appropriate medium; the dilutions of compounds were performed in separate plates and then added to the cells. The starting concentration of the compounds was 100 μM, and two-fold serial dilution was performed (concentration range: 100–0.19 μM). The culture plates were incubated at 37 °C for 72 h; at the end of the incubation period, 20 μL of MTT (thiazolyl blue tetrazolium bromide, Sigma) solution (from a stock solution of 5 mg/mL) was added to each well. After incubation at 37 °C for 4 h, 100 μL of sodium dodecyl sulfate (SDS) (Sigma) solution (10% in 0.01 M HCI) was added to each well, and the plates were further incubated, at 37 °C, overnight. Cell growth was determined by measuring the optical density (OD) at 540/630 nm, with a Multiscan EX ELISA reader (Thermo Labsystems, Cheshire, WA, USA). […]

[2] = test system: cisplatin-resistant human ovarian cancer cell line A2780cis; experiment: MTT antiproliferative assay, A2780cis; format: cell-based; conditions: 72 h, 100–0.19 μM, read-out: IC50 (µM) ± SD A2780cis
Experimental: as §1, §2

[3] = test system: KCR, drug-resistant subline of the human breast cancer MCF-7; experiment: MTT antiproliferative assay, KCR; format: cell-based; conditions: 100–0.19 μM, read-out: IC50 (µM) ± SD KCR
Experimental: as §1, §2

[4] = test system: Breast cancer cell line MCF-7; experiment: MTT antiproliferative assay, MCF-7; format: cell-based, human; conditions: for IC50: MTT assay, 72 h, 100–0.19 μM, read-out: IC50 (µM) ± SD MCF-7
Experimental: as §1, §2

[5] = test system: HeLa human cervix carcinoma cell line; experiment: MTT antiproliferative assay, HeLa; format: cell-based; conditions: 72 h, 100–0.19 μM, read-out: IC50 (µM) ± SD HeLa
Experimental: as §1, §2

[6] = test system: HTB-26 breast adenocarcinoma cell line; experiment: MTT antiproliferative assay, HTB-26; format: cell-based, human; conditions: 100–0.19 μM, read-out: IC50 (µM) ± SD HTB-26
Experimental: as §1, §2

Q: What does the source list for `N.N.[Cl][Pt][Cl]` [Cisplatin, cisplatin, reference compound]?
A: IC50 ([1]; 72 h): 3.6 ± 0.3 µM; IC50 [2]: 7.3 ± 0.2 µM; IC50 ([3]; 72 h): 6.7 ± 0.4 µM; IC50 [4]: 1.4 ± 1.1 µM; IC50 [5]: 2.3 ± 0.1 µM; IC50 ([6]; 72 h): 20.1 ± 2.3 µM

Q: With `C=CC1=C(C)C(=O)C=C2CCC3=C(C=CC(=O)C3(C)OC)C21OC` (stereo not shown) [Compound 1b] as the compound, how does the IC50 ([1]; Homo sapiens, A2780, 72 h) read?
A: 80.3 ± 3 µM

Q: What about the IC50 ([2]; Homo sapiens, A2780cis) of the same compound?
A: 88.2 ± 3.1 µM

Q: What about the IC50 ([3]; Homo sapiens, MCF7, 72 h) of the same compound?
A: > 100 µM

Q: And the IC50 ([4]; Homo sapiens, MCF7, 72 h)?
A: 52.1 ± 4.8 µM

Q: And the IC50 ([5]; Homo sapiens, HeLa)?
A: > 100 µM

Q: And the IC50 ([6]; Homo sapiens, HTB26, 72 h)?
A: 74.3 ± 3.6 µM

Q: Which results are given for `C=CC1=C(C)C(=O)C=C2CCC3=C(C=CC(=O)C3(C)OCC)C21OCC` (stereo not shown) [Compound 2a]?
A: IC50 ([1]; Homo sapiens, A2780, 72 h): 66 ± 4.4 µM; IC50 ([2]; Homo sapiens, A2780cis): 62.9 ± 1.7 µM; IC50 ([3]; 72 h): > 100 µM; IC50 ([4]; Homo sapiens, MCF7, 72 h): 80.5 ± 3.5 µM; IC50 ([5]; Homo sapiens, HeLa): 94.7 ± 3.4 µM; IC50 ([6]; 72 h): 94.3 ± 2 µM

Q: How did the IC50 ([1]; 72 h) turn out when `C=CC1=C(C)C(=O)C=C2CCC3=C(C=CC(=O)C3(C)OCC)C21OCC` (stereo not shown) [Compound 2b] was run?
A: 39.4 ± 3.1 µM

Q: And the IC50 [2]?
A: 38 ± 4.6 µM

Q: And the IC50 ([3]; 72 h)?
A: 44.2 ± 2.6 µM

Q: And the IC50 [4]?
A: 41 ± 0.9 µM

Q: What about the IC50 [5] of the same compound?
A: 61.9 ± 0.3 µM

Q: And the IC50 ([6]; 72 h)?
A: 45.8 ± 3.2 µM

Q: Which IC50 ([1]; Homo sapiens, A2780, 72 h) does the source give for `C=CC1=CC(=O)C=C2CCC3=C(C=CC(=O)C3(C)OC)C12OC` (stereo not shown) [Compound 3] here?
A: 8.6 ± 0.5 µM

Q: And the IC50 ([2]; Homo sapiens, A2780cis)?
A: 10.9 ± 2.2 µM

Q: And the IC50 ([3]; Homo sapiens, MCF7, 72 h)?
A: 18.9 ± 1.4 µM

Q: And the IC50 ([4]; Homo sapiens, MCF7, 72 h)?
A: 5.8 ± 0.2 µM

Q: And the “selectivity against MCF-7 cells over non-tumoral MRC-5 cells” value ([4]; ratio of IC50 MRC-5 / MCF-7)?
A: ca. 2.1 fold

Q: What about the IC50 ([5]; Homo sapiens, HeLa) of the same compound?
A: 12.9 ± 0.4 µM

Q: What about the IC50 ([6]; Homo sapiens, HTB26, 72 h) of the same compound?
A: 10.9 ± 0.9 µM

Q: Which results are given for `C=CC1=CC(=O)C=C2CCC3=C(C=CC(=O)C3(C)OCC)C12OCC` (stereo not shown) [Compound 4a]?
A: IC50 ([1]; Homo sapiens, A2780, 72 h): 25.2 ± 1.8 µM; IC50 ([2]; Homo sapiens, A2780cis): 22.5 ± 0.2 µM; IC50 ([3]; Homo sapiens, MCF7, 72 h): 23.5 ± 0.8 µM; IC50 ([4]; Homo sapiens, MCF7, 72 h): 11.7 ± 0.7 µM; IC50 ([5]; Homo sapiens, HeLa): 24.4 ± 0.8 µM; IC50 ([6]; Homo sapiens, HTB26, 72 h): 16.1 ± 0.2 µM

Q: How did the IC50 ([1]; 72 h) turn out when `C=CC1=CC(=O)C=C2CCC3=C(C=CC(=O)C3(C)OCC)C12OCC` (stereo not shown) [Compound 4b] was run?
A: 22 ± 2 µM

Q: What about the IC50 [2] of the same compound?
A: 22.1 ± 1.6 µM

Q: And the IC50 ([3]; 72 h)?
A: 29.4 ± 0.9 µM

Q: And the IC50 [4]?
A: 10.2 ± 0.1 µM

Q: What about the IC50 [5] of the same compound?
A: 35 ± 1.5 µM

Q: What about the IC50 ([6]; 72 h) of the same compound?
A: 20.1 ± 1.1 µM

Q: How did the IC50 ([1]; Homo sapiens, A2780, 72 h) turn out when `C=Cc1cc(O)cc2c1-c1ccc(O)c(C)c1CC2` [effusol] was run?
A: 33.1 ± 3.1 µM

Q: What about the IC50 ([2]; Homo sapiens, A2780cis) of the same compound?
A: 30.4 ± 0.4 µM

Q: And the IC50 ([3]; Homo sapiens, MCF7, 72 h)?
A: 39.3 ± 1.6 µM

Q: What about the IC50 ([4]; Homo sapiens, MCF7, 72 h) of the same compound?
A: 48.6 ± 3.4 µM

Q: What about the IC50 ([5]; Homo sapiens, HeLa) of the same compound?
A: 2.3 ± 0.7 µM

Q: What about the IC50 ([6]; Homo sapiens, HTB26, 72 h) of the same compound?
A: 57 ± 2.7 µM

Q: With `C=Cc1c(C)c(O)cc2c1-c1ccc(O)c(C)c1CC2` [juncusol] as the compound, how does the IC50 ([1]; Homo sapiens, A2780, 72 h) read?
A: 23.8 ± 1.3 µM

Q: And the IC50 ([2]; Homo sapiens, A2780cis)?
A: 37.1 ± 2.8 µM

Q: And the IC50 ([3]; Homo sapiens, MCF7, 72 h)?
A: 35.8 ± 1.7 µM

Q: What about the IC50 ([4]; Homo sapiens, MCF7, 72 h) of the same compound?
A: 37.1 ± 1.1 µM

Q: What about the IC50 ([5]; Homo sapiens, HeLa) of the same compound?
A: 0.5 µM

Q: And the IC50 ([6]; Homo sapiens, HTB26, 72 h)?
A: 41.7 ± 3.5 µM
